The test system of series [1] is HepaRG. The series is described as follows: Cytotoxicity against human HepaRG cells infected with HBV assessed as reduction in cell viability at 10 mM treated for 1 hr on day 5 post-infection followed by removal of media and supplemented with fresh media and further incubated for 3 days then followed by treatment for 1 hr on day 8 post-infection followed by removal of media and supplemented with fresh media and further incubated for 3 days in presence of 50 uM SKF-525A and measured on day 11 post-infection by Celltiter-Glo assay. The format is cell-based. The note with it: 10000 µM.

Series [2] concerns the target T1, Cytochrome P450 1A2 (Homo sapiens, UniProt P05177).
T1 sequence (P05177 whole entry): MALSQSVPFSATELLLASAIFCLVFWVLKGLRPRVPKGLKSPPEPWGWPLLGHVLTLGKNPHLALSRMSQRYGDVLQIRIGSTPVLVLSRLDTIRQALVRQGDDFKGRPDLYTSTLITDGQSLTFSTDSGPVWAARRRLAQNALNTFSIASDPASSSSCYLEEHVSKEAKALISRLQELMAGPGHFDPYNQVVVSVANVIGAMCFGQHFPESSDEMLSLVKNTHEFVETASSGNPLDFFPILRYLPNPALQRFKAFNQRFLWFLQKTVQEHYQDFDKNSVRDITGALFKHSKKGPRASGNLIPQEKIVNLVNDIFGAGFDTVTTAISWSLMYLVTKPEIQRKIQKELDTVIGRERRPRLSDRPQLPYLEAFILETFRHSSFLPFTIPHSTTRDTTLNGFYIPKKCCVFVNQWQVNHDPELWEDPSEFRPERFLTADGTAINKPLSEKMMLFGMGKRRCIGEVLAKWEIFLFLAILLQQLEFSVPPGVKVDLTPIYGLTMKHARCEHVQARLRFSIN
In words: Inhibition of CYP1A2 in HBV-infected human primary hepatocytes at 0.2 to 20 mM using luciferin-1A2 as substrate treated for 1 hr on day 5 post-infection followed by removal of media and supplemented with fresh media and further incubated for 3 days then followed by treatment for 1 hr on day 8 post-infection followed by removal of media and supplemented with fresh media and further incubated for 3 days and measured on day 11 post-infection by P450-Glo chemiluminescent assay. The format is ADME, tissue-based. The following applies: heparg, 20000 µM, dose 0.2-20 mM.

In the next series the target is CYP2C9 (Homo sapiens, UniProt P11712). The series is described as follows: Inhibition of CYP2C9 in HBV-infected human HepaRG cells at 10 mM using luciferin-H as substrate treated for 1 hr on day 5 post-infection followed by removal of media and supplemented with fresh media and further incubated for 3 days by P450-Glo chemiluminescent assay relative to control. The format is ADME, tissue-based. The note with it: probe luciferin-H.

Series [3] addresses T2, CYP1A2 (Homo sapiens, UniProt P05177).
T2 sequence (P05177 whole entry): T1 sequence (P05177 whole entry)
In words: Inhibition of CYP1A2 in HBV-infected human HepaRG cells at 10 mM using luciferin-1A2 as substrate treated for 1 hr on day 5 post-infection followed by removal of media and supplemented with fresh media and further incubated for 3 days then followed by treatment for 1 hr on day 8 post-infection followed by removal of media and supplemented with fresh media and further incubated for 3 days and measured on day 11 post-infection by P450-Glo chemiluminescent assay relative to control. The format is ADME, tissue-based. The note with it: probe luciferin-1A2.

The subject of series [4] is HepaRG. In words: Cytotoxicity against human HepaRG cells infected with HBV assessed as reduction in cell viability at 0.2 to 20 mM treated for 1 hr on day 5 post-infection followed by removal of media and supplemented with fresh media and further incubated for 3 days then followed by treatment for 1 hr on day 8 post-infection followed by removal of media and supplemented with fresh media and further incubated for 3 days and measured on day 11 post-infection by Celltiter-Glo assay. It counts as cell-based. The following applies: 20000 µM, dose 0.2-20 mM.

Series [5] addresses T1, Cytochrome P450 1A2. The series is described as follows: Inhibition of CYP1A2 in HBV-infected human HepaRG cells at 0.2 to 20 mM using luciferin-1A2 as substrate treated for 1 hr on day 5 post-infection followed by removal of media and supplemented with fresh media and further incubated for 3 days then followed by treatment for 1 hr on day 8 post-infection followed by removal of media and supplemented with fresh media and further incubated for 3 days and measured on day 11 post-infection by P450-Glo chemiluminescent assay. The format is ADME, tissue-based. The note with it: 20000 µM, dose 0.2-20 mM.

The test system of another series is Hepatocyte. The series is described as follows: Cytotoxicity against human primary hepatocytes infected with HBV assessed as reduction in cell viability at 10 mM treated for 1 hr on day 5 post-infection followed by removal of media and supplemented with fresh media and further incubated for 3 days then followed by treatment for 1 hr on day 8 post-infection followed by removal of media and supplemented with fresh media and further incubated for 3 days in presence of 25 uM SKF-525A and measured on day 11 post-infection by Celltiter-Glo assay. The note with it: 10000 µM. The format is cell-based.

The target in a further series is Cytochrome P450 2C9 (Homo sapiens, UniProt P11712). The series is described as follows: Inhibition of CYP2C9 in HBV-infected human primary hepatocytes at 5 to 100 uM using luciferin-H as substrate treated for 1 hr on day 5 post-infection followed by removal of media and supplemented with fresh media and further incubated for 3 days then followed by treatment for 1 hr on day 8 post-infection followed by removal of media and supplemented with fresh media and further incubated for 3 days and measured on day 11 post-infection by P450-Glo chemiluminescent assay. It counts as ADME, tissue-based, Primary hepatocyte. The following applies: dose 5-100 µM.

Series [6] concerns the target T1, Cytochrome P450 1A2. In words: Inhibition of CYP1A2 in HBV-infected human primary hepatocytes cells at 5 to 100 uM using luciferin-1A2 as substrate treated for 1 hr on day 5 post-infection followed by removal of media and supplemented with fresh media and further incubated for 3 days then followed by treatment for 1 hr on day 8 post-infection followed by removal of media and supplemented with fresh media and further incubated for 3 days and measured on day 11 post-infection by P450-Glo chemiluminescent assay. The format is ADME, tissue-based, Primary hepatocyte. The note with it: dose 5-100 µM.

For series [7], the target named is T2, CYP1A2. The series is described as follows: Inhibition of CYP1A2 in HBV-infected human HepaRG cells at 50 uM using luciferin-1A2 as substrate treated for 1 hr on day 5 post-infection followed by removal of media and supplemented with fresh media and further incubated for 3 days by P450-Glo chemiluminescent assay relative to control. The note with it: probe luciferin-1A2. The format is ADME, tissue-based.

In series [8] the test system is HepaRG. In words: Cytotoxicity against human HepaRG cells infected with HBV assessed as reduction in cell viability at 5 to 100 uM treated for 1 hr on day 5 post-infection followed by removal of media and supplemented with fresh media and further incubated for 3 days then followed by treatment for 1 hr on day 8 post-infection followed by removal of media and supplemented with fresh media and further incubated for 3 days and measured on day 11 post-infection by Celltiter-Glo assay. It counts as cell-based. The following applies: dose 5-100 µM.

The target of another series is Cytochrome P450 3A4 (Homo sapiens, UniProt P08684). In words: Inhibition of CYP3A4 in HBV-infected human HepaRG cells at 5 to 100 uM using luciferin-IPA as substrate treated for 1 hr on day 5 post-infection followed by removal of media and supplemented with fresh media and further incubated for 3 days then followed by treatment for 1 hr on day 8 post-infection followed by removal of media and supplemented with fresh media and further incubated for 3 days and measured on day 11 post-infection by P450-Glo chemiluminescent assay. It counts as ADME, tissue-based. The note with it: dose 5-100 µM.

The text below walks through data of ChEMBL document CHEMBL4725437, “P450s under Restriction (PURE) Screen Using HepaRG and Primary Human Hepatocytes for Discovery of Novel HBV Antivirals” (ACS Med Chem Lett, 2020).

Sequence of Cytochrome P450 3A4 (P08684 whole entry): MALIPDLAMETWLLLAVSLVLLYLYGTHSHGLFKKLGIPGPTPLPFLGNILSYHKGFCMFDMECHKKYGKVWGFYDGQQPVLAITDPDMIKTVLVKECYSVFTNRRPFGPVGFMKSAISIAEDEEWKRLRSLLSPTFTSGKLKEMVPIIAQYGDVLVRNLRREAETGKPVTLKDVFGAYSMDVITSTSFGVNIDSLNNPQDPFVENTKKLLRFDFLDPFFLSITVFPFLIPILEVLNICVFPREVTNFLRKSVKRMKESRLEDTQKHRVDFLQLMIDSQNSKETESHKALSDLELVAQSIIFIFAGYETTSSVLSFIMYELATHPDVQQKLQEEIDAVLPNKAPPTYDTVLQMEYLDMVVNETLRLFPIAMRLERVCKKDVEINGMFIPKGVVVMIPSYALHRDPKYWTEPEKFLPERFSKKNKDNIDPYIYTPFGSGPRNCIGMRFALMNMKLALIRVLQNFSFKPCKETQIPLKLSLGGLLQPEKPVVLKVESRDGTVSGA
Sequence of Cytochrome P450 2C9 (P11712 whole entry): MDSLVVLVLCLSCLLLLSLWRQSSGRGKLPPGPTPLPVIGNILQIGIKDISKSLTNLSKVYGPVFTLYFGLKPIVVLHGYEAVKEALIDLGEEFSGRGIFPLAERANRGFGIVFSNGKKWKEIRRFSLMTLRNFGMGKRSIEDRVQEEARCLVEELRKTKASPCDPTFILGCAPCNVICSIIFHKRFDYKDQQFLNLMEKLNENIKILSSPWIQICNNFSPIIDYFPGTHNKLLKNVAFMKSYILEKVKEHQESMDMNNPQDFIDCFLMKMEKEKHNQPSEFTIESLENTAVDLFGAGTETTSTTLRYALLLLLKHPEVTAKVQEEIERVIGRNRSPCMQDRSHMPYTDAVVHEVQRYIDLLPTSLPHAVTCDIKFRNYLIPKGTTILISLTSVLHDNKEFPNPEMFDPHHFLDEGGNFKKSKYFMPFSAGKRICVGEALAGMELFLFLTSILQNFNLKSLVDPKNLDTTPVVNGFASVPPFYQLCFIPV
Sequence of CYP2C9 (P11712 whole entry): as above

`Nn1nnc2ccccc21`: the Activity entry with HepaRG [1], in the series with HepaRG [4] and with Hepatocyte was “Non-Toxic” in each case. Also, the “inhibition (INH)” value at Cytochrome P450 1A2 [2] and against Cytochrome P450 1A2 [5] was “Active” each time. In addition, the inhibition at 1 h, 10000 µM was -9.4% at CYP2C9 and 91% against CYP1A2 [3].
For the compound `CCCC(C(=O)OCCN(CC)CC)(c1ccccc1)c1ccccc1` [PROADIFEN], the “inhibition (INH)” value on Cytochrome P450 2C9, against Cytochrome P450 1A2 [6] and at Cytochrome P450 3A4 was “Active” throughout. Also, the inhibition at 1 h, 50 µM at CYP1A2 [7] was determined as 2.2%. Also, in the series on HepaRG [8], the Activity result is reported as “Non-Toxic”.
